Data as given in ChEMBL document CHEMBL3046083, “Synthesis, characterization and antimicrobial evaluation of novel derivatives of isoniazid” (2012).
In brackets after ≈: the same amount, converted by molar mass.

What was measured:
Format in all cases: functional
Nakaseomyces glabratus [1] = test: Antimicrobial activity against Candida glabrata ATCC 10233 by broth dilution method
Candida albicans [2] = test: Antimicrobial activity against Candida albicans ATCC 10231 by broth dilution method
Escherichia coli [3] = test: Antimicrobial activity against Escherichia coli ATCC 25922 after 24 hr by broth dilution method; conditions: ATCC 25922, 24 h
Pseudomonas aeruginosa [4] = test: Antimicrobial activity against Pseudomonas aeruginosa ATCC […] after 24 hr by broth dilution method
Staphylococcus aureus [5] = test: Antimicrobial activity against Staphylococcus aureus ATCC 29213 after 24 hr by broth dilution method; conditions: ATCC 29213, 24 h
Bacillus subtilis [6] = test: Antimicrobial activity against Bacillus subtilis ATCC […] after 24 hr by broth dilution method
Nakaseomyces glabratus [7] = test: Antimicrobial activity against Candida glabrata ATCC 10233 at 100 ug/ml after 24 to 48 hr by agar diffusion method; conditions: read-out: DIZ
Candida albicans [8] = test: Antimicrobial activity against Candida albicans ATCC 10231 at 100 ug/ml after 24 to 48 hr by agar diffusion method; conditions: read-out: DIZ
Escherichia coli [9] = test: Antimicrobial activity against Escherichia coli ATCC 25922 at 100 ug/ml after 24 to 48 hr by agar diffusion method; conditions: read-out: DIZ
Pseudomonas aeruginosa [10] = test: Antimicrobial activity against Pseudomonas aeruginosa ATCC […] at 100 ug/ml after 24 to 48 hr by agar diffusion method; conditions: read-out: DIZ
Staphylococcus aureus [11] = test: Antimicrobial activity against Staphylococcus aureus ATCC 29213 at 100 ug/ml after 24 to 48 hr by agar diffusion method; conditions: read-out: DIZ
Bacillus subtilis [12] = test: Antimicrobial activity against Bacillus subtilis ATCC […] at 100 ug/ml after 24 to 48 hr by agar diffusion method; conditions: read-out: DIZ

Compound	MFC (Nakaseomyces glabratus [1]) [µg/mL]	MIC (Nakaseomyces glabratus [1]) [µg/mL]	MIC50 (Nakaseomyces glabratus [1]) [µg/mL]	MFC (Candida albicans [2]) [µg/mL]	MIC (Candida albicans [2]) [µg/mL]	MIC50 (Candida albicans [2]) [µg/mL]	MIC (Escherichia coli [3]) [µg/mL]	MIC50 (Escherichia coli [3]) [µg/mL]	MIC (Pseudomonas aeruginosa [4]) [µg/mL]	MIC50 (Pseudomonas aeruginosa [4]) [µg/mL]	MIC (Staphylococcus aureus [5]) [µg/mL]	MIC50 (Staphylococcus aureus [5]) [µg/mL]	MIC (Bacillus subtilis [6]) [µg/mL]	MIC50 (Bacillus subtilis [6]) [µg/mL]	zone of inhibition at 100 µg/mL (Nakaseomyces glabratus [7]) [mm]	zone of inhibition at 100 µg/mL (Candida albicans [8]) [mm]	zone of inhibition at 100 µg/mL (Escherichia coli [9]) [mm]	zone of inhibition at 100 µg/mL (Pseudomonas aeruginosa [10]) [mm]	zone of inhibition at 100 µg/mL (Staphylococcus aureus [11]) [mm]	zone of inhibition at 100 µg/mL (Bacillus subtilis [12]) [mm]
CCOc1c(/C=N\NC(=O)c2ccncc2)cccc1CN1CCN(C)CC1	50 (≈ 131 µM)	12.5 (≈ 32.8 µM)	12.8 (≈ 33.6 µM)	25 (≈ 65.5 µM)	12.5 (≈ 32.8 µM)	6.4 (≈ 16.8 µM)	6.25 (≈ 16.4 µM)	3.2 (≈ 8.39 µM)	12.5 (≈ 32.8 µM)	6.4 (≈ 16.8 µM)	6.25 (≈ 16.4 µM)	3.2 (≈ 8.39 µM)	12.5 (≈ 32.8 µM)	6.4 (≈ 16.8 µM)	20	22	32	22	33	26
CCOc1c(/C=N\NC(=O)c2ccncc2)cccc1CN1CCCCC1	100 (≈ 273 µM)	12.5 (≈ 34.1 µM)	12.8 (≈ 34.9 µM)	100 (≈ 273 µM)	12.5 (≈ 34.1 µM)	12.8 (≈ 34.9 µM)	12.5 (≈ 34.1 µM)	6.4 (≈ 17.5 µM)	12.5 (≈ 34.1 µM)	6.4 (≈ 17.5 µM)	12.5 (≈ 34.1 µM)	6.4 (≈ 17.5 µM)	25 (≈ 68.2 µM)	12.8 (≈ 34.9 µM)	16	16	25	20	25	23
CCCN(CCC)Cc1cccc(/C=N\NC(=O)c2ccncc2)c1OCC	100 (≈ 261 µM)	12.5 (≈ 32.7 µM)	12.8 (≈ 33.5 µM)	50 (≈ 131 µM)	25 (≈ 65.4 µM)	12.8 (≈ 33.5 µM)	12.5 (≈ 32.7 µM)	6.4 (≈ 16.7 µM)	12.5 (≈ 32.7 µM)	6.4 (≈ 16.7 µM)	25 (≈ 65.4 µM)	6.4 (≈ 16.7 µM)	25 (≈ 65.4 µM)	12.8 (≈ 33.5 µM)	15	15	22	18	22	21
CCOc1ccccc1/C=N\NC(=O)c1ccncc1	100 (≈ 371 µM)	25 (≈ 92.8 µM)	25.6 (≈ 95.1 µM)	50 (≈ 186 µM)	50 (≈ 186 µM)	25.6 (≈ 95.1 µM)	50 (≈ 186 µM)	25.6 (≈ 95.1 µM)	25 (≈ 92.8 µM)	12.8 (≈ 47.5 µM)	25 (≈ 92.8 µM)	12.8 (≈ 47.5 µM)	50 (≈ 186 µM)	25.6 (≈ 95.1 µM)	11	13	18	14	19	15
CCOc1c(/C=N\NC(=O)c2ccncc2)cccc1CN1CCNCC1	50 (≈ 136 µM)	12.5 (≈ 34 µM)	12.8 (≈ 34.8 µM)	25 (≈ 68 µM)	12.5 (≈ 34 µM)	6.4 (≈ 17.4 µM)	6.25 (≈ 17 µM)	3.2 (≈ 8.71 µM)	12.5 (≈ 34 µM)	6.4 (≈ 17.4 µM)	3.12 (≈ 8.49 µM)	3.2 (≈ 8.71 µM)	12.5 (≈ 34 µM)	6.4 (≈ 17.4 µM)	23	24	33	23	34	27
CCOc1c(/C=N\NC(=O)c2ccncc2)cccc1CN1CCOCC1	50 (≈ 136 µM)	12.5 (≈ 33.9 µM)	12.8 (≈ 34.7 µM)	25 (≈ 67.9 µM)	12.5 (≈ 33.9 µM)	6.4 (≈ 17.4 µM)	6.25 (≈ 17 µM)	3.2 (≈ 8.69 µM)	12.5 (≈ 33.9 µM)	6.4 (≈ 17.4 µM)	6.25 (≈ 17 µM)	3.2 (≈ 8.69 µM)	12.5 (≈ 33.9 µM)	6.4 (≈ 17.4 µM)	21	21	31	22	32	27
NYSTATIN	25	12.5	6.4	12.5	6.25	3.2	–	–	–	–	–	–	–	–	–	–	–	–	–	–
CCOc1c(/C=N\NC(=O)c2ccncc2)cccc1CN(C)C	100 (≈ 306 µM)	25 (≈ 76.6 µM)	25.6 (≈ 78.4 µM)	100 (≈ 306 µM)	25 (≈ 76.6 µM)	12.8 (≈ 39.2 µM)	25 (≈ 76.6 µM)	12.8 (≈ 39.2 µM)	25 (≈ 76.6 µM)	12.8 (≈ 39.2 µM)	25 (≈ 76.6 µM)	12.8 (≈ 39.2 µM)	50 (≈ 153 µM)	12.8 (≈ 39.2 µM)	14	13	20	15	21	17
CCOc1c(/C=N\NC(=O)c2ccncc2)cccc1CN1CCCC1	100 (≈ 284 µM)	12.5 (≈ 35.5 µM)	12.8 (≈ 36.3 µM)	25 (≈ 70.9 µM)	12.5 (≈ 35.5 µM)	6.4 (≈ 18.2 µM)	6.25 (≈ 17.7 µM)	3.2 (≈ 9.08 µM)	12.5 (≈ 35.5 µM)	6.4 (≈ 18.2 µM)	12.5 (≈ 35.5 µM)	6.4 (≈ 18.2 µM)	25 (≈ 70.9 µM)	12.8 (≈ 36.3 µM)	19	18	27	20	26	22
CCCCN(CCCC)Cc1cccc(/C=N\NC(=O)c2ccncc2)c1OCC	100 (≈ 244 µM)	12.5 (≈ 30.4 µM)	12.8 (≈ 31.2 µM)	100 (≈ 244 µM)	25 (≈ 60.9 µM)	12.8 (≈ 31.2 µM)	12.5 (≈ 30.4 µM)	6.4 (≈ 15.6 µM)	12.5 (≈ 30.4 µM)	6.4 (≈ 15.6 µM)	12.5 (≈ 30.4 µM)	6.4 (≈ 15.6 µM)	25 (≈ 60.9 µM)	12.8 (≈ 31.2 µM)	15	15	24	19	23	21
CCOc1c(/C=N\NC(=O)c2ccncc2)cccc1CN(CC)CC	100 (≈ 282 µM)	25 (≈ 70.5 µM)	25.6 (≈ 72.2 µM)	25 (≈ 70.5 µM)	25 (≈ 70.5 µM)	12.8 (≈ 36.1 µM)	25 (≈ 70.5 µM)	12.8 (≈ 36.1 µM)	25 (≈ 70.5 µM)	12.8 (≈ 36.1 µM)	25 (≈ 70.5 µM)	12.8 (≈ 36.1 µM)	25 (≈ 70.5 µM)	12.8 (≈ 36.1 µM)	14	15	20	16	21	19
